The record followed here is patent US12281149B2, “Modulators of G-protein coupled receptors” (priority 2021, dated 2025).

What is called pEC50 is the negative decadic logarithm of the EC50, by convention in mol/L. Broadly, the Emax is the maximal effect, on the per cent scale that the assay sets.

Holding throughout (assay type): cell-based
In experiment [1] the target is T1, GIP receptor (Homo sapiens, UniProt P48546).
T1 sequence (P48546 22-466): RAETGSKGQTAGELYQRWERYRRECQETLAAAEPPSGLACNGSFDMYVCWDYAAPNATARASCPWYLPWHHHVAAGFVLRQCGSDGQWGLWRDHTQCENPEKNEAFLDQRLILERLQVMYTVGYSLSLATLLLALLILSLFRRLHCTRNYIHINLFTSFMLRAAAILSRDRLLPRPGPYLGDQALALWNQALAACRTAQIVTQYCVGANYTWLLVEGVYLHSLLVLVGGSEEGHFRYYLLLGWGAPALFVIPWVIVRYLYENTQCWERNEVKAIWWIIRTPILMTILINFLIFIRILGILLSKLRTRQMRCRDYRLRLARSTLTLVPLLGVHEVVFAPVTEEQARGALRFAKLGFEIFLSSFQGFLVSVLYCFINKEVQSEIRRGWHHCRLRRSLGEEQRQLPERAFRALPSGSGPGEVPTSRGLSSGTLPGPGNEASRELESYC
Nature of the experiment: PathHunter β-arrestin assay, GIP receptor. The arrangement: host or cells: PathHunter CHO-K1 GIPR β-Arrestin Cell Line.

The target of experiment [2] is T1, GIP receptor. Nature of the experiment: HitHunter cAMP assay, GIP receptor. The note with it: for Emax: read-out: Emax GIP-1R. For orientation: Changes in cAMP serve as a functional read-out for many G protein-coupled receptors.
The target of experiment [3] is T2, GLP-1 receptor (Homo sapiens, UniProt P43220). The experiment in a line: PathHunter β-arrestin assay, GLP-1 receptor. The arrangement: host or cells: PathHunter CHO-K1 GLP1R β-Arrestin Cell Line.
T2 sequence (P43220 24-463): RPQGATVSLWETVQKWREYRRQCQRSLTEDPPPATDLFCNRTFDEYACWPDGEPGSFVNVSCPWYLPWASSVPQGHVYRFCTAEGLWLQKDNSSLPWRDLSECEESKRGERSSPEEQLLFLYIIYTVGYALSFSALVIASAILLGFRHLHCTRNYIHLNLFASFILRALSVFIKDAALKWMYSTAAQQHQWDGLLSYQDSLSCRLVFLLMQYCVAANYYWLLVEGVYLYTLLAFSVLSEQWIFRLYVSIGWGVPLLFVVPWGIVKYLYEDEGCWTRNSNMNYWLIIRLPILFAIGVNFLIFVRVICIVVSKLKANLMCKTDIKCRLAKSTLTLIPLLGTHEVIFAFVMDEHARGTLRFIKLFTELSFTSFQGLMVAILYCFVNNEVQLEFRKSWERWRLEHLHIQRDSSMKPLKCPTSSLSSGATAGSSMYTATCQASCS
Experiment [4] has as its target T2, GLP-1 receptor. The experiment in a line: HitHunter cAMP assay, GLP-1 receptor. Particulars: for Emax: read-out: Emax GLP-1R.

pEC50: −log10 of the molar value. Like-named read-outs stand apart in the source and are kept apart here. *1 amine or outer side, *2 acyl side, *3 side chain or, on linkers, in order; H or OH if unused. Where a SMILES comes first, the peptide text is derived from it. Side-chain parts run from the residue outwards. [ ]: non-standard residue; d: D form. The star is where a group is joined. Isobutyryl(2-(3-CN-5-F-Ph)) = CC(C)(C(=O)*)c1cc(F)cc(C#N)c1; C20 diacid = O=C(O)CCCCCCCCCCCCCCCCCCC(=O)*; γGlu = O=C(O)[C@H](CCC(=O)[*:2])N[*:1]; X48 = CC(C)[C@H](C(=O)*)c1ccc(Cl)cc1; AEEA = NCCOCCOCC(=O)O; Aib = CC(C)(N)C(=O)O; βAla = NCCC(=O)O

Turning to `CC[C@H](C)[C@H](NC(=O)[C@H](CC(C)C)NC(=O)[C@H](Cc1c[nH]c2ccccc12)NC(=O)[C@H](CCC(N)=O)NC(=O)[C@@H](NC(=O)[C@H](Cc1ccccc1)NC(=O)[C@H](C)NC(=O)[C@H](CCCCNC(=O)COCCOCCNC(=O)COCCOCCNC(=O)CC[C@H](NC(=O)CCCCCCCCCCCCCCCCCCC(=O)O)C(=O)O)NC(=O)[C@H](CCC(N)=O)NC(=O)[C@H](C)NC(=O)[C@@H](NC(=O)[C@H](CCCCN)NC(=O)[C@H](CC(=O)O)NC(=O)[C@H](CC(C)C)NC(=O)C(C)(C)NC(=O)[C@@H](NC(=O)[C@H](CO)NC(=O)[C@H](Cc1ccc(O)cc1)NC(=O)[C@H](CC(=O)O)NC(=O)[C@H](CO)NC(=O)[C@@H](NC(=O)[C@H](Cc1ccccc1)NC(=O)[C@@H](NC(=O)CNC(=O)[C@H](CCC(=O)O)NC(=O)CCNC(=O)[C@H](c1ccc(Cl)cc1)C(C)C)[C@@H](C)O)[C@@H](C)O)[C@@H](C)CC)[C@@H](C)CC)C(C)C)C(=O)N[C@@H](C)C(=O)NCC(=O)NCC(=O)N1CCC[C@H]1C(=O)N[C@@H](CO)C(=O)N[C@@H](CO)C(=O)NCC(=O)N[C@@H](C)C(=O)N1CCC[C@H]1C(=O)N1CCC[C@H]1C(=O)N1CCC[C@H]1C(=O)N[C@@H](CO)C(N)=O` [Compound 177] ({X48-βAla}-EGTFTSDYSI[Aib]LDKIAQK([AEEA-AEEA-γGlu-C20 diacid])AFVQWLIAGGPSSGAPPPS-NH2), the negative logarithm of the EC50 (pEC50) in experiment [1] was under 6.00; in experiment [2], 7.00 to 8.00; in experiment [3] it was under 6.00; in experiment [4] it was 8.00 to 9.00. In addition, the Emax in experiment [2] (CHO) amounted to 94%; in experiment [4] (CHO), 95%.

On to `CC[C@H](C)[C@H](NC(=O)[C@H](CC(C)C)NC(=O)[C@H](Cc1c[nH]c2ccccc12)NC(=O)[C@H](CCC(N)=O)NC(=O)[C@@H](NC(=O)[C@H](Cc1ccccc1)NC(=O)[C@H](C)NC(=O)[C@H](CCCCNC(=O)COCCOCCNC(=O)COCCOCCNC(=O)CC[C@H](NC(=O)CCCCCCCCCCCCCCCCCCC(=O)O)C(=O)O)NC(=O)[C@H](CCC(N)=O)NC(=O)[C@H](C)NC(=O)[C@@H](NC(=O)[C@H](CCCNC(=N)N)NC(=O)[C@H](CC(=O)O)NC(=O)[C@H](CC(C)C)NC(=O)C(C)(C)NC(=O)[C@@H](NC(=O)[C@H](CO)NC(=O)[C@H](Cc1ccc(O)cc1)NC(=O)[C@H](CC(=O)O)NC(=O)[C@H](CO)NC(=O)[C@@H](NC(=O)[C@H](Cc1ccccc1)NC(=O)[C@@H](NC(=O)CNC(=O)[C@H](CCC(=O)O)NC(=O)CCNC(=O)C(C)(C)c1cc(F)cc(C#N)c1)[C@@H](C)O)[C@@H](C)O)[C@@H](C)CC)[C@@H](C)CC)C(C)C)C(=O)N[C@@H](C)C(=O)NCC(=O)NCC(=O)N1CCC[C@H]1C(=O)N[C@@H](CO)C(=O)N[C@@H](CO)C(=O)NCC(=O)N[C@@H](C)C(=O)N1CCC[C@H]1C(=O)N1CCC[C@H]1C(=O)N1CCC[C@H]1C(=O)N[C@@H](CO)C(N)=O` [Compound 242] ({Isobutyryl(2-(3-CN-5-F-Ph))-βAla}-EGTFTSDYSI[Aib]LDRIAQK([AEEA-AEEA-γGlu-C20 diacid])AFVQWLIAGGPSSGAPPPS-NH2), for which the pEC50 is 7.00 to 8.00 in experiment [2] (CHO cells stably expressing GIP receptor, cAMP accumulation, 30 min, read-out: EC50 GIP-1R); under 6.00 in experiment [3] (β-arrestin-2 recruitment, PathHunter CHO-K1 GLP1R β-Arrestin Cell Line, 90 min at 37° C., normalized to GLP-1, read-out: GLP-1R β Arrestin EC50); 9.00 to 10.00 in experiment [4] (CHO cells stably expressing human GLP-1 receptor, cAMP accumulation, 30 min, read-out: EC50 GLP-1R). In addition, the Emax in experiment [2] (CHO cells, cAMP, normalized to maximum signal from GIP (high) and DMSO (low)) stood at 115%; in experiment [4] (CHO cells, cAMP, normalized to maximum signal from GLP-1 (high) and DMSO (low)), 99%.
